Assay [1] relates to choroidal endothelial cells (CEC; RF/6A). Put plainly: protection against H2O2 oxidative stress, microscopy. As to conditions: 100 μM to 1000 μM, H2O2 24 hours. It is filed as cell-based. The procedure:
(§1) Using cultured cell lines as models of choroidal endothelial cells (CEC; RF/6A)^73 and retinal pigmented epithelial cells (ARPE-19)^74, we tested whether polyphosphate (polyP) could protect against stress-induced alterations in cell survival and deposition of terminal complement activation products (C5b-9).
(§2) CEC (FIG. 21) or ARPE-19 (FIG. 22) cells were grown to ˜80% confluence in DMEM+10% serum, and then incubated with varying concentration of hydrogen peroxide (H2O2) for 24 hours in the presence of varying concentrations of polyP1000.

Assay [2] concerns terminal pathway (TP) of complement. Briefly: serum-based terminal pathway (TP) hemolytic assay (2% NHS, C5b,6, chicken erythrocytes). It is filed as cell-based, human. An excerpt:
Erythrocyte lysis assays were used to measure complement-mediated hemolytic activity. Erythrocyte (RBC) lysis assays as previously described^18,37 were used to measure complement activity. For alternative pathway assays and for total hemolytic activity assays, unsensitized rabbit erythrocytes were used. Chicken erythrocytes were used for the terminal pathway assays.
Erythrocytes were washed three times in GVB with the reaction buffers as indicated, and counted using the Advia 120 Hematology System from Siemens (Siemens, Erlangen, Germany). Reactions in 300 μL were allowed to proceed for 30 min at 37° C., after which unlysed cells were pelleted by centrifugation at 600×g. Erythrocyte lysis, reflected by the released hemoglobin in the supernatant, was quantified by measuring the absorbance at 405 nm using the Mithras LB 940 microplate reader from Berthold Technologies (Bad Wildbad, Germany). Percent lysis was determined relative to the control of 100% lysis with H2O. For total hemolytic and terminal pathway (TP) assays, the concentrations of NHS and C5b,6 to initiate complement activation were established from pilot studies to obtain ˜70-80% erythrocyte lysis at 30 min.
For serum-based terminal pathway (TP) hemolytic assays, components were diluted in GVB containing 10 mM EDTA (GVB-E), the latter added to prevent upstream complement activation and generation of endogenous C5b,6. 2% NHS was used as the source of C7, C8, and C9, and hemolysis of chicken erythrocytes (cRBC) (3.3×10^8 cells/mL) was initiated by addition of exogenous purified C5b,6, the concentration of which was determined from pilot studies to yield ˜70-80% lysis at 30 min. No C5b,6 activity was detected in the NHS prior to initiating the reaction. For some experiments, instead of NHS, purified terminal pathway complement components were used in the TP assays. In these assays, in a final volume of 300 uL GVB, lysis was achieved by the sequential addition of the following components: cRBC (3.3×10^8 cells/mL), C5b,6 (20 μM), C7 (15 nM), C8 (10 nM), and C9 (25 nM). The unlysed cell pellet was removed by centrifugation and lysis was measured immediately after the 30-minute reaction. A standard curve for the terminal pathway assay using serum as the source of complement (FIG. 2) was generated using a fixed serum concentration at 2%, and increasing concentrations of purified C5b,6 dose-dependently lysed chicken erythrocytes after 30 min at 37° C. […] of purified C5b,6 was therefore used to fix baseline lysis at ˜80% to allow assessment of the inhibitory effects of polyphosphate in serum.
TP activity in NHS(2%), measured by lysis of cRBC, was initiated by adding a limiting amount of exogenous purified C5b,6 (250 pM) to achieve 70-80% lysis after 30 min. A molar excess of EDTA was used to prevent upstream activation of complement and generation of endogenous C5b,6. In the absence of C5b,6, there was no detectable complement-mediated cRBC lysis. P1 at concentrations ranging from 0.1 to 1000 μM, had no effect on complement-mediated hemolysis in NHS via the TP (FIG. 5A). By contrast, polyphosphate>1000 inhibited the TP in serum in a concentration-dependent manner, with an IC50 of ˜10 μM polyphosphate>1000 (dotted lines) (calculated based on monomeric phosphate).

In assay [3] the test system is retinal pigmented epithelial cells (ARPE-19). Briefly: protection against H2O2 oxidative stress, microscopy. It is filed as cell-based, human. Conditions: 100 μM to 1000 μM, H2O2 24 hours. How it is done:
as §1, §2

For assay [4], the target named is T1, C1-esterase inhibitor (C1-inh) (Homo sapiens, UniProt P05155).
T1 sequence (P05155 23-500): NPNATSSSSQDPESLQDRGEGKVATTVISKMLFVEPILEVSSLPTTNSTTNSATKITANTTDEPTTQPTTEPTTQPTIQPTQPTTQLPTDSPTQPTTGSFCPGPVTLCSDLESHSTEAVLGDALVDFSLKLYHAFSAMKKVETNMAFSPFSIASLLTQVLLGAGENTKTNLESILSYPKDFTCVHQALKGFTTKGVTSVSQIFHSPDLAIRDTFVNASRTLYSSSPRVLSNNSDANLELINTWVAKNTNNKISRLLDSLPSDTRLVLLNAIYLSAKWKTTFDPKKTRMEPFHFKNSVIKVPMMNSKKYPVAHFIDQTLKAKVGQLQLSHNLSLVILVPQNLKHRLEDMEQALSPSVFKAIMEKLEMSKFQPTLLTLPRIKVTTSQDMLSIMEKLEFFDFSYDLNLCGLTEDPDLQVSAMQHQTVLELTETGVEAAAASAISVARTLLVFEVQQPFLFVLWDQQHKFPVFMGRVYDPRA
Put plainly: C1s-mediated cleavage of C2 in the presence of C1-inh (SDS-PAGE). It is filed as biochemical. Conditions: 10-500 μM, 6 nM C1s, 5 nM C1-inh. How it is done:
We tested whether polyP affects the inhibitory properties of C1-inh on C1s-mediated cleavage and activation of complement factor C4 and C2. SDS-PAGE followed by coomassie staining of gels was used to monitor cleavage of C4 by C1s in the presence/absence of C1-inh and/or polyP in a purified system.
Briefly, 6 nM C1s with 10-500 μM of polyP1000 were incubated in 20 mM Hepes, 0.15 M NaCl, pH 7.5, 0.01% Tween buffer for 90 minutes at 37° C. 5 nM C1-inh was added and incubated for 30 minutes. C2 was added and incubated for 5 minutes at 37° C. The reactions were quenched with 5× loading buffer and β-ME.

The source of these data is patent publication US9408871B2, “Methods for inhibiting complement activation and uses thereof” (THE UNIVERSITY OF BRITISH COLUMBIA, priority 2013, dated 2016).

On to `O=P(O)(O)O` [P1, Orthophosphate], for which, in assay [1], the “protective effect against H2O2 oxidative stress, CEC” value is on record as “No effect was observed”. The “effect on TP hemolytic activity at equivalent concentration” value in assay [2] (100 μM (based on the monomeric form)) was “had no effect”. The “effect on complement-mediated hemolysis in NHS via the TP” value in assay [2] (0.1 to 1000 μM, 2% NHS, 250 pM C5b,6, cRBC) is listed as “had no effect”. Moreover, the “effect of co-incubated P1 on suppressive properties of polyphosphate>1000” value in assay [2] (up to 2 mM P1 with 200 μM polyphosphate>1000) was “had no effect on the suppressive properties”. In assay [3], the “protective effect against H2O2 oxidative stress, ARPE-19” value is on record as “No effect was observed”. Further, in assay [4], the “effect on activity of C1-inh in interfering with C1s-mediated cleavage of C2” value is on record as “had no effect”.
